# Results taken from patent US4970205A, “Sulfonic acid substituted aromatic steroids as inhibitors of steroid 5-α-reductase” (SmithKline Beecham Corporation, priority 1988, dated 1990).
# Read-outs that look alike come from different tables or passages of the source.
# How the values were obtained:
# [1] = biological target: T1, human steroid 5-α-reductase (Homo sapiens, UniProt P31213); assay: inhibition of human steroid 5-α-reductase using tissue from hyperplastic human prostates ([14C]-testosterone conversion, Dixon plot); type: biochemical; details: human prostatic particulate, pH 5.0, 37° C., 20 to 30 minutes; competitive against testosterone assumed
# T1 construct: Frozen human prostates were thawed and minced into small pieces; from tissue; host or cells: hyperplastic human prostate, 140,000 x g particulate fraction
# T1 sequence (P31213 1-254): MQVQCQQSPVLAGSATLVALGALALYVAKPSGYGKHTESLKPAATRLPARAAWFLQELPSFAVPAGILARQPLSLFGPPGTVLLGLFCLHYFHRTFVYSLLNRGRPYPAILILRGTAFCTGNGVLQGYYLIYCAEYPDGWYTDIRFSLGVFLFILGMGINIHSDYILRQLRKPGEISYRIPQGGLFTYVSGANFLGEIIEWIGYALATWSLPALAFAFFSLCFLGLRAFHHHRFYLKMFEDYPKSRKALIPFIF
# Method: A compound of the invention, potassium 17b-(N,N-diisopropylcarboxamide)-estr-1,3,5(10)-triene-3-sulfonate, was tested for potency in inhibiting human steroid 5-α-reductase using tissue from hyperplastic human prostates. In determining potency in inhibiting the human enzyme, the following procedure was employed:
# Frozen human prostates were thawed and minced into small pieces (5 mm^3). The tissue was homogenized in 3 to 5 volumes of 20 mM potassium phosphate buffer, pH 6.5, containing 0.33 M sucrose, 1 mM dithiothreitol, and […] with a Brinkmann Polytron (Sybron Corporation, Westbury, N.Y.). The solution was subjected to sonication for 3 to 5 minutes with a Sonifier (Branson Sonic Power Co.) followed by hand homogenization in a glass-to-glass Dounce homogenizer (Kontes Glass Company, Vineland, N.J.). […]
# A constant amount of [^14 C]-testosterone (52 to 55 mCi/mmol, New England Nuclear, Boston, Mass.) in ethanol and varying amounts of the potential inhibitor in ethanol were deposited in test tubes and concentrated to dryness in a SAVANT Speed Vac. […] The radiochemical content in the bands of the substrate and the products was determined with a BIOSCAN Imaging Scanner (Bioscan, Inc., Washington, D.C.). The percent of recovered radiolabel converted to product was calculated, from which enzyme activity was determined. […]
# steroid 5-α-reductase = details: cited from earlier work; for Ki / reversibility of inhibition (with Ki): Table I; for time-dependence of 5-α-reductase inhibition: footnote text of Table I
Compound,Ki [1],Ki (steroid 5-α-reductase),reversibility of inhibition (with Ki) (steroid 5-α-reductase),time-dependence of 5-α-reductase inhibition (steroid 5-α-reductase),Ki (steroid 5-α-reductase; unit inferred)
"CC(C)N(C(=O)[C@H]1CC[C@H]2[C@@H]3CCc4cc(S(=O)(=O)O)ccc4[C@H]3CC[C@]12C)C(C)C [Potassium 17β-(N,N-Diisopropylcarboxamide)-estr-1,3,5(10)-triene-3-sulfonate]",0.01 µM,,,,
CC(=O)C1CCC2C3CC=C=CC(=O)CCC(=O)C3CCC12C (stereo not shown) [(2)],,1 µM,Irreversible,,
CCN(CC)C(=O)C1CCC2C3CCC4N(C)C(=O)CCC4(C)C3CCC12C (stereo not shown) [(4)],,0.005 µM,Reversible,,
CC12CCC(=O)C=C1CCC1C2CCC2(C)C(C(=O)O)CCC12 (stereo not shown) [(1)],,1.1 µM,Reversible,,
C=C1CC2C(CCC3(C)C2CCC3(OC(C)=O)C(C)=O)C2(C)CCC(=O)C=C12 (stereo not shown) [(5)],,1.25 µM,Irreversible,time-dependent inactivator,
CC(CO)C1CCC2C3CCC4C(=[N+]=[N-])C(=O)CCC4(C)C3CCC12C (stereo not shown) [(3)],,,Irreversible,"potent, time-dependent",0.035 µM
